Measurements from US4359462A, “Antibiotic 67-121, a new polyene antifungal antibiotic produced by Actinoplanes caeruleus” (priority 1980, dated 1982).
Values after ≈ are worked out from the molar mass of the structure shown. Like-named read-outs stand apart in the source and are kept apart here.

Columns and labels:
[1] = Acute toxicity in male CF 1 mice; conditions: mouse, in vivo
Method: Similarly, in another series of tests the acute toxicity of antibiotics 67-121A, 67-121B and 67121C were determined in male CF 1 mice.

[2] = system: Candida albicans; assay: In vivo protective activity in mice against Candida albicans, single dose one hour after infection; design: species or system CF 1 mice; conditions: read-out: PD50
Method: (§1) The in vivo protective activity of the antibiotic products in mice (Carworth farm CF 1 mice, each weighing about 20 g.) against Candida albicans was determined. The antibiotic was administered by the stated route in an aqueous vehicle containing 0.5% carboxymethyl cellulose and in two doses. One dose was administered shortly before intravenous infection with a lethal dose of Candida albicans and the other dose was administered 4 hours after infection. Most of the unprotected control mice died within 24 to 48 hours after infection. The survival rate was determined at the end of 24 and 48 hours and from this using standard procedures the PD50 values were determined.
The PD50 values for antibiotics 67-121A, 67-121B and 67-121C using CF 1 mice were determined using essentially the above described method, with the exception that the antibiotic was administered as a single dose one hour after infection with Candida albicans.
The PD50 values were determined on survivors 72 hours after infection. Of the untreated, infected control mice, 80% died within 24 hours and 100% within 48 hours.

[3] = physchem; conditions: 66% aqueous dimethylformamide
[4] = system: Cryotococcus; assay: In vitro antifungal activity, MIC by tube dilution; assay type: cell-based; conditions: single strain; same conditions (48 hours)
Method: (§2) For reference, data on candicidin are also given. The quoted minimal inhibitory concentrations (MIC) were obtained by conventional tube dilution techniques using Sabouraud's dextrose broth.
(§3) As representative of the component antibiotics, antibiotic 67-121A and antibiotic 67-121C were tested in the same manner as the complex. Antibiotic 67-121A gave MIC values of from less than 0.01 up to 0.03 meg/ml. against 18 strains of Candida albicans, while antibiotic 67-121C gave MIC values of 0.05 to 0.3 meg/ml. against 9 strains of Candida albicans after incubation times of 48 hours. Further testing of antibiotic 67-121C under the same conditions gave MIC values of 0.3 meg/ml. against two strains of Torulopsis and a single strain of Cryotococcus.

[5] = system: Torulopsis; assay: In vitro antifungal activity, MIC by tube dilution; assay type: cell-based; conditions: two strains of Torulopsis; same conditions (48 hours)
Method: as §2, §3

[6] = pKa; conditions: 66% aqueous dimethylformamide, 66% aqueous dimethyl formamide
[7] = system: mice; assay: Acute toxicity in mice; assay type: in vivo
Method: The acute toxicity of the antibiotic 67-121 complex in mice was determined via intraperitoneal (I.P.) and subcutaneous (S.C.) administration. For comparison, the values of candicidin were determined.

[8] = system: Candida albicans; assay: In vivo protective activity in mice against lethal Candida albicans infection, two doses; design: species or system mice (Carworth farm CF 1); conditions: survivors 48 hours after infection
Method: as §1
The results obtained for the Antibiotic 67-121 complex are given in Table 5 together with data for candicidin (for comparison purposes). The PD50 values were determined on survivors 48 hours after infection.

[9] = system: Candida albicans; assay: In vitro antifungal activity, MIC by tube dilution (Sabouraud's dextrose broth); assay type: cell-based
Method: as §2, §3

[10] = system: Trichophyton mentagrophytes; assay: In vitro antifungal activity, MIC by tube dilution; assay type: cell-based; conditions: 72 hrs.
From the text: as §2

[11] = system: Terulopsis glabrata; assay: In vitro antifungal activity, MIC by tube dilution; assay type: cell-based
From the text: as §2

[12] = system: Trichophyton soudanese; assay: In vitro antifungal activity, MIC by tube dilution; assay type: cell-based; conditions: strain 2; 72 hrs.
From the text: as §2

[13] = system: Aspergillus niger; assay: In vitro antifungal activity, MIC by tube dilution; assay type: cell-based; conditions: 72 hrs.
From the text: as §2

[14] = Oral, single dose one hour after infection, survivors 72 hours after infection
[15] = sc, Subcutaneous, single dose one hour after infection, survivors 72 hours after infection

CC1C=CC=CC=CC=CC=CC=CC=CC(OC2OC(C)C(O)C(N)C2O)CC2OC(O)(CC(O)CC(O)CC(O)CC(O)CC(O)CC(O)CC(=O)OC1C(C)CCC(O)CC(=O)c1ccc(N)cc1)CC(O)C2C(=O)O (centres unmarked) [Antibiotic 67-121B]
LD50 ([1]; ip): 6 mg/kg | LD50 ([1]; po): > 50 mg/kg | LD50 ([1]; sc): > 50 mg/kg | ED50 [2, 14]: 18 mg/kg | ED50 [2, 15]: 15 mg/kg | pKa ([3]; pka (COO^-)): 6.3 | pKa ([3]; pka (NH3^+)): 9

CNc1ccc(C(=O)CC(O)CCC(C)C2OC(=O)CC(O)CC(O)CC(O)CC(O)CC(O)CC(O)CC3(O)CC(O)C(C(=O)O)C(CC(OC4OC(C)C(OC5OC(CO)C(O)C(O)C5O)C(N)C4O)C=CC=CC=CC=CC=CC=CC=CC2C)O3)cc1 (centres unmarked) [Antibiotic 67-121C]
LD50 ([1]; ip): 6 mg/kg | ED50 [2, 14]: 1.5 mg/kg | ED50 [2, 15]: 2.1 mg/kg | MIC [4]: 0.3 mg/L (≈ 0.232 µM) | MIC [5]: 0.3 mg/L (≈ 0.232 µM) | pKa ([3]; pka (COO^-)): 6 | pKa ([3]; pka (NH3^+)): 9

CNc1ccc(C(=O)CC(O)CCC(C)C2OC(=O)CC(O)CC(O)CC(O)CC(O)CC(O)CC(O)CC3(O)CC(O)C(C(=O)O)C(CC(OC4OC(C)C(O)C(N)C4O)C=CC=CC=CC=CC=CC=CC=CC2C)O3)cc1 (centres unmarked) [Antibiotic 67-121A]
LD50 ([1]; ip, I.P.): 2.4 mg/kg | LD50 ([1]; sc, S.C.): > 50 mg/kg | LD50 ([1]; Oral): > 50 mg/kg | pKa ([6]; pka (COO^-)): 6 | pKa ([6]; pka (NH3^+)): 9 | ED50 ([2]; po, 72 h): 1.5 mg/kg | ED50 ([2]; sc, 72 h): 2.5 mg/kg

Candicidin
LD50 ([7]; I.P.): 8 to 22 mg/kg | LD50 ([7]; S.C.): 300 mg/kg | PD50 ([8]; Test 1, Oral): 25 mg/kg | PD50 ([8]; Test 1, Subcutaneous): 5 mg/kg | PD50 ([8]; Test 2, Oral): 5 mg/kg | PD50 ([8]; Test 2, Subcutaneous): 5 mg/kg | PD50 ([8]; Test 3, Subcutaneous): 25 mg/kg | PD50 ([8]; Test 4, Oral): 40 mg/kg | PD50 ([8]; Test 4, Subcutaneous): 2.5 mg/kg | Minimum Inhibitory Concentration (M.I.C.) ([9]; strain 401, 24 hrs.): 0.8 meg/ml | Minimum Inhibitory Concentration (M.I.C.) ([9]; strain 401, 48 hrs.): 3.0 meg/ml | Minimum Inhibitory Concentration (M.I.C.) ([9]; strain 402, 24 hrs.): 0.03 meg/ml | Minimum Inhibitory Concentration (M.I.C.) ([9]; strain 402, 48 hrs.): 0.08 meg/ml | Minimum Inhibitory Concentration (M.I.C.) ([9]; strain 403, 24 hrs.): 0.03 meg/ml | Minimum Inhibitory Concentration (M.I.C.) ([9]; strain 403, 48 hrs.): 0.08 meg/ml | Minimum Inhibitory Concentration (M.I.C.) ([9]; strain 404, 24 hrs.): 0.8 meg/ml | Minimum Inhibitory Concentration (M.I.C.) ([9]; strain 404, 48 hrs.): 3.0 meg/ml | Minimum Inhibitory Concentration (M.I.C.) ([9]; strain 406, 24 hrs.): 0.03 meg/ml | Minimum Inhibitory Concentration (M.I.C.) ([9]; strain 406, 48 hrs.): 0.08 meg/ml | Minimum Inhibitory Concentration (M.I.C.) ([9]; strain 420, 24 hrs.): 3.0 meg/ml | Minimum Inhibitory Concentration (M.I.C.) ([9]; strain 420, 48 hrs.): 7.5 meg/ml | Minimum Inhibitory Concentration (M.I.C.) ([10]; strain 1A): 17.5 meg/ml | Minimum Inhibitory Concentration (M.I.C.) ([10]; strain 17): 25 meg/ml | Minimum Inhibitory Concentration (M.I.C.) ([11]; strain 1, 24 hrs.): 0.03 meg/ml | Minimum Inhibitory Concentration (M.I.C.) ([11]; strain 1, 48 hrs.): 0.3 meg/ml | Minimum Inhibitory Concentration (M.I.C.) ([11]; strain 2, 24 hrs.): 0.03 meg/ml | Minimum Inhibitory Concentration (M.I.C.) ([11]; strain 2, 48 hrs.): 0.08 meg/ml | Minimum Inhibitory Concentration (M.I.C.) ([11]; strain 3, 24 hrs.): 0.03 meg/ml | Minimum Inhibitory Concentration (M.I.C.) ([11]; strain 3, 48 hrs.): 0.08 meg/ml | Minimum Inhibitory Concentration (M.I.C.) ([11]; strain 16, 24 hrs.): 0.03 meg/ml | Minimum Inhibitory Concentration (M.I.C.) ([11]; strain 16, 48 hrs.): 0.3 meg/ml | Minimum Inhibitory Concentration (M.I.C.) ([11]; strain 17, 24 hrs.): 0.03 meg/ml | Minimum Inhibitory Concentration (M.I.C.) ([11]; strain 17, 48 hrs.): 0.08 meg/ml | Minimum Inhibitory Concentration (M.I.C.) [12]: 25 meg/ml | Minimum Inhibitory Concentration (M.I.C.) [13]: 7.5 meg/ml
